Laboratory results taken from PubChem BioAssay (NCI).
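Step 1: Grow cells in 96-well plates. Step 2: Expose to compound for 48 hours at 5 concentrations. Step 3: Interpolate endpoints linearly; if unreached, use highest concentration. TGI: concentration producing complete growth inhibition.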

What was measured:
Assay in all cases: NCI-60 cell line screen, 48 h
786-0 renal = system: 786-0 renal
A498 renal = system: A498 renal
A549 NSCLC = system: A549 NSCLC
CAKI-1 renal = system: CAKI-1 renal
CCRF-CEM leukemia = system: CCRF-CEM leukemia
COLO 205 colon = system: COLO 205 colon
DLD-1 colon = system: DLD-1 colon
DMS 114 small cell lung = system: DMS 114 small cell lung
DMS 273 small cell lung = system: DMS 273 small cell lung
EKVX NSCLC = system: EKVX NSCLC
HCT-116 colon = system: HCT-116 colon
HCT-15 colon = system: HCT-15 colon
HL-60(TB) leukemia = system: HL-60(TB) leukemia
HOP-62 NSCLC = system: HOP-62 NSCLC
HOP-92 NSCLC = system: HOP-92 NSCLC
HT29 colon = system: HT29 colon
IGROV1 ovarian = system: IGROV1 ovarian
K-562 leukemia = system: K-562 leukemia
KM12 colon = system: KM12 colon
KM20L2 colon = system: KM20L2 colon
LOX IMVI melanoma = system: LOX IMVI melanoma
LXFL 529 NSCLC = system: LXFL 529 NSCLC
M14 melanoma = system: M14 melanoma
M19-MEL melanoma = system: M19-MEL melanoma
MALME-3M melanoma = system: MALME-3M melanoma
MOLT-4 leukemia = system: MOLT-4 leukemia
NCI-H226 lung = system: NCI-H226 lung
NCI-H23 lung = system: NCI-H23 lung
NCI-H460 lung = system: NCI-H460 lung
NCI-H522 lung = system: NCI-H522 lung
OVCAR-3 ovarian = system: OVCAR-3 ovarian
OVCAR-4 ovarian = system: OVCAR-4 ovarian
OVCAR-5 ovarian = system: OVCAR-5 ovarian
OVCAR-8 ovarian = system: OVCAR-8 ovarian
RPMI-8226 leukemia = system: RPMI-8226 leukemia
RXF 393 renal = system: RXF 393 renal
RXF-631 renal = system: RXF-631 renal
SF-268 CNS = system: SF-268 CNS
SF-295 CNS = system: SF-295 CNS
SF-539 CNS = system: SF-539 CNS
SK-MEL-5 melanoma = system: SK-MEL-5 melanoma
SK-OV-3 ovarian = system: SK-OV-3 ovarian
SN12C renal = system: SN12C renal
SNB-19 CNS = system: SNB-19 CNS
SNB-75 CNS = system: SNB-75 CNS
SNB-78 CNS = system: SNB-78 CNS
SW-620 colon = system: SW-620 colon
TK-10 renal = system: TK-10 renal
U251 CNS = system: U251 CNS
UACC-257 melanoma = system: UACC-257 melanoma
UACC-62 melanoma = system: UACC-62 melanoma
UO-31 renal = system: UO-31 renal
XF 498 CNS = system: XF 498 CNS
ACHN renal = system: ACHN renal
HCC-2998 colon = system: HCC-2998 colon
SK-MEL-2 melanoma = system: SK-MEL-2 melanoma
SK-MEL-28 melanoma = system: SK-MEL-28 melanoma

Measured: TGI

COc1ccc2cc3[n+](cc2c1OC)CCc1cc(O)c(O)cc1-3
> 100 µM: 786-0 renal | A498 renal | A549 NSCLC | CAKI-1 renal | CCRF-CEM leukemia | COLO 205 colon | DLD-1 colon | DMS 114 small cell lung | DMS 273 small cell lung | EKVX NSCLC | HCT-116 colon | HCT-15 colon | HL-60(TB) leukemia | HOP-62 NSCLC | HOP-92 NSCLC | HT29 colon | IGROV1 ovarian | K-562 leukemia | KM12 colon | KM20L2 colon | LOX IMVI melanoma | LXFL 529 NSCLC | M14 melanoma | M19-MEL melanoma | MALME-3M melanoma | MOLT-4 leukemia | NCI-H226 lung | NCI-H23 lung | NCI-H460 lung | NCI-H522 lung | OVCAR-3 ovarian | OVCAR-4 ovarian | OVCAR-5 ovarian | OVCAR-8 ovarian | RPMI-8226 leukemia | RXF 393 renal | RXF-631 renal | SF-268 CNS | SF-295 CNS | SF-539 CNS | SK-MEL-5 melanoma | SK-OV-3 ovarian | SN12C renal | SNB-19 CNS | SNB-75 CNS | SNB-78 CNS | SW-620 colon | TK-10 renal | U251 CNS | UACC-257 melanoma | UACC-62 melanoma | UO-31 renal | XF 498 CNS

CSc1nc(NC(=O)O)c(N(C(C)=O)C(=O)O)c(=O)n1C
> 100 µM: 786-0 renal | A498 renal | A549 NSCLC | ACHN renal | CAKI-1 renal | CCRF-CEM leukemia | COLO 205 colon | DLD-1 colon | DMS 114 small cell lung | DMS 273 small cell lung | EKVX NSCLC | HCC-2998 colon | HCT-116 colon | HCT-15 colon | HL-60(TB) leukemia | HOP-92 NSCLC | HT29 colon | IGROV1 ovarian | K-562 leukemia | KM12 colon | KM20L2 colon | LOX IMVI melanoma | LXFL 529 NSCLC | M14 melanoma | M19-MEL melanoma | MALME-3M melanoma | MOLT-4 leukemia | NCI-H226 lung | NCI-H460 lung | OVCAR-3 ovarian | OVCAR-4 ovarian | OVCAR-5 ovarian | OVCAR-8 ovarian | RPMI-8226 leukemia | RXF 393 renal | RXF-631 renal | SF-268 CNS | SF-295 CNS | SF-539 CNS | SK-MEL-2 melanoma | SK-MEL-28 melanoma | SK-MEL-5 melanoma | SN12C renal | SNB-19 CNS | SNB-78 CNS | SW-620 colon | U251 CNS | UACC-257 melanoma | UACC-62 melanoma | UO-31 renal | XF 498 CNS
